Experimental data from publication PMC5274652, “Antagonizing Retinoic Acid Receptors Increases Myeloid Cell Production by Cultured Human Hematopoietic Stem Cells” (Archivum Immunologiae et Therapiae Experimentalis, 2016).
One block for each molecule: values may come before it.

Columns and labels:
human RARα = molecular target: T1, human RARα (Homo sapiens, UniProt P10276); experiment: Competition with [3H]-ATRA binding, nuclear extracts of Sf21 cells expressing RARα; conditions: nuclear extracts of baculovirus-infected Sf21 cells, read-out: Binding affinity ED50, RARα
T1 construct: made in house
T1 sequence (P10276 1-462): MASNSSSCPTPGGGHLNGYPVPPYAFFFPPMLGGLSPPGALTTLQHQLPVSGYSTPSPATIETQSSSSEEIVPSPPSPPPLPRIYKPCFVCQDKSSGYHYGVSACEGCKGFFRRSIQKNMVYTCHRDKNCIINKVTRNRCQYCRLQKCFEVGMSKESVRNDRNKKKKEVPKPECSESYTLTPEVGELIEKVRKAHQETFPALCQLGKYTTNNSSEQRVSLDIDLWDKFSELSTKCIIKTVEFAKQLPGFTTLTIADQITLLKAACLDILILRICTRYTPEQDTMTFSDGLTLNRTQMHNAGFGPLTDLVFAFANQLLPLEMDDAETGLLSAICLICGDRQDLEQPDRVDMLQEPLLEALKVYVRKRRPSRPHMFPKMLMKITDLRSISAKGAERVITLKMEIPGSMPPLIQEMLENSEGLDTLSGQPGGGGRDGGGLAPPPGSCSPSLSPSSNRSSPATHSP

human RARβ = molecular target: T2, human RARβ (Homo sapiens, UniProt P10826); experiment: Competition with [3H]-ATRA binding, nuclear extracts of Sf21 cells expressing RARβ; conditions: nuclear extracts of baculovirus-infected Sf21 cells, read-out: Binding affinity ED50, RARβ
T2 construct: made in house
T2 sequence (P10826 1-455): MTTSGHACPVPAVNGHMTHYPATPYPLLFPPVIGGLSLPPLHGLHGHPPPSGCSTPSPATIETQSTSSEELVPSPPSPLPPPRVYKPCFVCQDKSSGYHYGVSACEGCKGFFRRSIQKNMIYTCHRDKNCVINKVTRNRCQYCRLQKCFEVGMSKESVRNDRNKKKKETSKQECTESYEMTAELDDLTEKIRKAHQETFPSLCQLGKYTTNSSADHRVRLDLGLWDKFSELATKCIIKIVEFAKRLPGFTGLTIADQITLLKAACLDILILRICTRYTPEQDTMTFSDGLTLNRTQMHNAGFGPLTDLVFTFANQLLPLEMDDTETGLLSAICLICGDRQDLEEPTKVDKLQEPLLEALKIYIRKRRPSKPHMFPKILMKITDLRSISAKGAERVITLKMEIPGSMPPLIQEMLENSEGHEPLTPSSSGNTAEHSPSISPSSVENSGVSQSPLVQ

human RARγ = molecular target: T3, human RARγ (Homo sapiens, UniProt P13631); experiment: Competition with [3H]-ATRA binding, nuclear extracts of Sf21 cells expressing RARγ; conditions: nuclear extracts of baculovirus-infected Sf21 cells
T3 construct: made in house
T3 sequence (P13631 1-454): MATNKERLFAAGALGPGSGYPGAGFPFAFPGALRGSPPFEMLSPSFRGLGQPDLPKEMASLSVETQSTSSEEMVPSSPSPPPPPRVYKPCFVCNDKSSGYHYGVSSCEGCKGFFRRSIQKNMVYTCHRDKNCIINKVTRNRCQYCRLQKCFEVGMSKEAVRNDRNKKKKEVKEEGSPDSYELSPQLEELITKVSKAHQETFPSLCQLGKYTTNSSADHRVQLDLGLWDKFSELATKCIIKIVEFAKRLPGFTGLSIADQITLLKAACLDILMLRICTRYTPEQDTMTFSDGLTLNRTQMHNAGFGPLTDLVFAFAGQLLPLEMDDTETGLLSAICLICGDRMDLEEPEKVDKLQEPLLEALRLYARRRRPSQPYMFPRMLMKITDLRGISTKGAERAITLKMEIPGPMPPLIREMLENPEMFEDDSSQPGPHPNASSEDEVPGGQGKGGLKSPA

NB-4 cells = experiment: Differentiation of NB-4 cells (CD11b/CD14 flow cytometry); format: cell-based, human; conditions: 96 h
Procedure: (§1) NB-4 and KG1 cells were obtained from the German Resource Center for Biological Material (DSMZ GmbH, Braunschweig, Germany). The cells were grown in RPMI-1640 medium supplemented with 10 % fetal bovine serum (FBS), 100 U/ml penicillin, and 100 µg/ml streptomycin (Sigma, St Louis, MO, USA). Cells were grown at 37 °C in 5 % CO2.
(§2) The expression of differentiation markers at the cell surface was determined by flow cytometry. Differentiation of NB-4 and KG1 cells was measured by staining using the monoclonal antibodies CD11b-FITC and CD14-PE and appropriately labeled isotype controls (all from ImmunoTools, Friesoythe, Germany). Differentiation of human CD34^+ve cells was measured by triple-color staining using various cocktails of phycoerythrin-, fluorescein isothyocyanate-, and PerCP-monoclonal antibodies (from Becton–Dickinson, San Jose, CA, USA). The markers used to identify cell populations were as follows: CD45^+ve leukocytes; CD34^+ve/CD133^+ve HSCs; CD33^+ve/CD13^+ve immature myeloid; CD117^+ve myeloblasts and promyelocytes; CD11b^+ve/CD15^+ve mature myeloid; CD11b^+ve/CD65^+ve neutrophils; CD11b^+ve/CD14^+ve monocytes; glycophorin^+ve A erythroid cells; CD61^+ve megakaryoblasts and platelets; CD2^+ve/CD5^+ve/CD7^+ve T cells and NK cells; CD56^+ve NK cells; CD19^+ve/CD20^+ve B cells; and CD10^+ve B lymphocyte progenitors; and present on mature neutrophils and DR^+ve progenitors and present on mature monocytes. The cells were stained with 1 µl of the fluorescently labeled antibody (or the appropriate control immunoglobulin) for 1 h on ice. Next, they were washed with ice-cold phosphate-buffered saline (PBS) and suspended in 0.5 ml PBS supplemented with 0.1 % bovine serum albumin (Sigma, St Louis, MO, USA) prior to analysis on FACS Calibur flow cytometer (Becton–Dickinson, San Jose, CA, USA). The acquisition parameters were set for an isotype control. Cells were analyzed using a FACSCalibur, and data analysis was performed using the CellQuest Pro software (Becton–Dickinson, San Jose, CA, USA).

KG1 cells = experiment: Differentiation of KG1 cells (CD11b/CD14 flow cytometry); format: cell-based, human; conditions: 96 h
Procedure: as §1, §2

CD34^+vehuHSC = experiment: Cell production and lifespan of CD34+ve huHSC-initiated cultures; format: cell-based, human
From the text: (§3) The cells used were CD34^+ve cells purified from the blood of normal human adult donors and post-mobilization of stem cells to the blood. Cells obtained and purified in this manner are used routinely by the National Blood Service Stem Cell Laboratory in Birmingham for bone marrow transplantation. Ethics approval for the use of adult human blood-mobilized stem cells (CD34^+vehuHSC) was from the West Midlands Research Ethics Committee. Informed consent was obtained by the regional National Blood Service Stem Cell Laboratory in Birmingham. CD34^+ve cells were purified to 99 % CD34^+ve, 97 % CD133^+ve, >99 % lineage^−ve (n = 15) using an anti-CD34 monoclonal antibody, immunomagnetic beads, and a CliniMACS magnetic separator. Purified cells were plated at 5 × 10^5 cells/ml in microtiter wells in 200 μl of either RPMI-1640 medium (R and D Systems, Abingdon, UK) or HPGM^TM hematopoietic growth medium (Lonza, UK) containing either 10 % FBS or 10 % human serum, antibiotics (100 U/ml penicillin and 100 μg/ml streptomycin) and stem cell factor (SCF), interleukin (IL)-3, and granulocyte-colony stimulating factor (G-CSF) (all from R and D Systems Abingdon, UK) as stated in the results. Cultures were fed every 2–3 days (with fresh compound), split into microtiter wells, and then expanded into 2 ml Costar wells to maintain a cell density of between 2.5 and 10 × 10^5 cells/ml. Cells were grown at 37 °C in 5 % CO2. Viable cells were enumerated by phase contrast microscopy (400× magnification).
as §2

[1] = tested on: lineage^−ve/CD133^+ve/CD34^+vehuHSC; experiment: Ex vivo expansion of lineage-ve/CD133+ve/CD34+ve huHSC; format: cell-based, human; conditions: all 15 donors; control 8–10-fold
From the text: as §3, with “Viable cells were enumerated by phase contrast microscopy (400× magnification).” left out
The expression of differentiation markers at the cell surface was determined by flow cytometry. Differentiation of NB-4 and KG1 cells was measured by staining using the monoclonal antibodies CD11b-FITC and CD14-PE and appropriately labeled isotype controls (all from ImmunoTools, Friesoythe, Germany). Differentiation of human CD34^+ve cells was measured by triple-color staining using various cocktails of phycoerythrin-, fluorescein isothyocyanate-, and PerCP-monoclonal antibodies (from Becton–Dickinson, San Jose, CA, USA). […] Cells were analyzed using a FACSCalibur, and data analysis was performed using the CellQuest Pro software (Becton–Dickinson, San Jose, CA, USA).

Molecule: C=C1/C(=C\C=C2/CCC[C@]3(C)[C@@H]([C@H](C)CCCC(C)(C)O)CC[C@@H]23)C[C@@H](O)C[C@@H]1O [1,25D, 1α,25-Dihydroxyvitamin D3]
CD11b+ve/CD14+ve cells (monocyte differentiation) (NB-4 cells; NB-4 cells, 10 nM, alone): ~ 6%

B1: granulocyte-colony stimulating factor (protein, UniProt P09919 31-207, looked up)
Granulocyte …: TPLGPASSLPQSFLLKCLEQVRKIQGDGAALQEKLVSECATYKLCHPEELVLLGHSLGIPWAPLSSCPSQALQLAGCLSQLHSGLFLYQGLLQALEGISPELGPTLDTLQLDVADFATTIWQQMEELGMAPALQPTQGAMPAFASAFQRRAGGVLVASHLQSFLEVSYRVLRHLAQP
notes: growth factor added at 30 ng/ml as benchmark for optimal generation of myeloid cells
cells produced versus control cultures (CD34^+vehuHSC; 30 ng/ml, by day 30): fourfold more cells | time for which cultures were maintained (CD34^+vehuHSC; 30 ng/ml, 10 % FBS, 100 ng/ml SCF, 5 ng/ml IL-3): ≤ 55 days

More lines, main results first:

IC50 (human RARα): 0.0201 µM | IC50 (human RARβ): > 5 µM | IC50 (human RARγ; read-out: Binding affinity ED50, RARγ): > 5 µM
Molecule: CC1(C)CCC(C)(C)c2c1cc(C(=O)Nc1cc(F)c(C(=O)O)c(F)c1)c(O)c2Cl [AGN195183]
CD11b+ve/CD14+ve cells (monocyte differentiation) (NB-4 cells; NB-4 cells, 100 nM combined with 10 nM 1,25D): 40% | CD11b+ve/CD14−ve cells (neutrophil differentiation) (NB-4 cells; NB-4 cells, 100 nM, alone): 40% | CD11b+ve/CD14+ve cells (monocyte differentiation) (KG1 cells; KG1 cells, 100 nM combined with 10 nM 1,25D): 18%

IC50 (human RARα): 0.0039 µM | IC50 (human RARβ): 4.036 µM | Binding affinity ED50, RARγ (human RARγ): >10,000 nM
Molecule: CCOc1c(Br)cc(C(=O)Nc2ccc(C(=O)O)cc2)cc1C(=O)c1ccc(C)cc1 [AGN196996]
effect on differentiation of NB-4 cells (NB-4 cells; 100 nM with 10 nM 1,25D, compared with 1,25D alone): did not have an appreciable effect | effect on differentiation of NB-4 cells (NB-4 cells; 100 nM, used alone): no effect | effect on differentiation of KG1 cells (KG1 cells; 100 nM together with 10 nM 1,25D): no effect | effect on differentiation of KG1 cells (KG1 cells; 100 nM, used alone): no effect | cells (largely myeloid) produced versus γ antagonist-treated and control cultures (CD34^+vehuHSC; by day 20): around fourfold more cells | prolonged lifespan of cultures (CD34^+vehuHSC; human HSCs supplemented with stem cell factor ± interleukin 3, abstract): up to 55 days | expansion of lineage−ve/CD133+ve/CD34+ve cells [1]: around 20 fold
